Test results as given in patent US20110207742A1, “METHOD FOR REDUCTION, STABILIZATION AND PREVENTION OF RUPTURE OF LIPID RICH PLAQUE” (KOWA CO., LTD., priority 2004, published 2011).

Experiments:
Format in all cases: in vivo, rabbit
[1] = tested on: WHHL rabbits; experiment: Ratio of aortic plaque area in WHHL rabbits; settings: Pitavastatin 0.5 mg/kg, compound 1 10 mg/kg; for Ratio of aortic plaque area (%) Mean ± S.E: plaque area/aortic intimal surface area×100, 16 weeks via drinking water, control 49.6 ± 5.0; for Inhibition ratio (%) of ratio of aortic plaque area: vs control group, 16 weeks via drinking water
Description: (§1) A WHHL rabbit was discovered by Dr. Yoshio Watanabe, a former medical professor at Kobe University in 1973, and was established as a strain. The WHHL rabbit is a model animal which naturally develops hypercholesterolemia and arteriosclerosis. Using such WHHL rabbits, the effect of the drugs on plaque stabilization was examined according to the following method.
(§2) Male homozygous WHHL rabbits (Kitayama Labes, Nagano) were purchased from Oriental Yeast (Tokyo), and WHHL rabbits aged about 4 months were used for experiment. For control, single administration of Pitavastatin, single administration of the compound 1, combined administration of Pitavastatin and the compound 1, 8 WHHL rabbits, 7 WHHL rabbits, 3 WHHL rabbits, and 4 WHHL rabbits were used, respectively.
(§3) Pitavastatin was synthesized by Nissan Chemical Industries, Ltd. (Tokyo) and was supplied therefrom. In the case of administration of Pitavastatin, 0.5 mg/kg of Pitavastatin dissolved in 400 mL (which is an average amount of drinking water per rabbit a day) of drinking water was administered to each rabbit. In the case of administration of the compound 1, 10 mg/kg (in terms of free base) of the compound 1 dissolved in 400 mL (which is an average amount of drinking water per rabbit a day) of ion-exchange water was administered to each rabbit. One or both of the drugs were administered for 16 weeks.
The rabbit was perfused at a perfusion pressure of 120 mmH2O with physiological saline injected from a cardiac apex for about 5 minutes. Further, the rabbit was perfused with 4% paraformaldehyde in the same manner as described above to fix an aorta. The aorta was excised from the rabbit, and fat and connective tissue attached to the aorta were separated. An incision was made along the lesser curvature of the aorta, and then the greater curvature of the aorta was partially incised. The aorta was sandwiched between plastic films in such a manner that the intimal side of the aorta was observed, and a macro image was taken (CAMEDIA E-10, manufactured by Olympus Corporation). Based on the image, plaque area (that is, the area of lipid deposition) and aortic intimal surface area were analyzed by an image analyzer (Win Roof Ver. 5.0, manufactured by MITANI CORPORATION). The ratio of aortic plaque area of each of the rabbits was obtained using the formula:
plaque area/aortic intimal surface area×100
(§4) The results of TC and the ratio of aortic plaque area were expressed as average±standard error. Significance test between the control group and the drug administration groups were detected using Dunnett's test. Histopathological findings were evaluated in terms of the percentage of plaque area occupied by macrophages and the percentage of plaque area occupied by collagen.

[2] = tested on: WHHL rabbits; experiment: Total plasma cholesterol (TC) level in WHHL rabbits after 16 weeks of administration; settings: Pitavastatin 0.5 mg/kg, compound 1 10 mg/kg; for Total plasma cholesterol (mg/dL) Mean ± S.E: male homozygous WHHL rabbits, via drinking water for 16 weeks, control 646.8 ± 27.1
Experimental: For the investigation of the effect of these drugs on total plasma cholesterol (TC), one or both of the compound 1 (10 mg/kg) and Pitavastatin (0.5 mg/kg) were administered to WHHL rabbits via drinking water for 16 weeks to measure the TC of each of the WHHL rabbits.
as §1, §2, §3
In the next morning after last administration, each of the rabbits was placed in a restraining box, and the ear of the rabbit was sterilized with an alcohol. Then, about 1 mL of blood was collected from an ear vein with a syringe containing EDTA (final concentration, 0.1%). The collected blood was centrifuged at 4,200×g for 5 minutes to fractionate plasma. TC was measured using cholesterol E-test Wako (by a cholesterol oxidaseΩDAOS method).
as §4

[3] = tested on: WHHL rabbits; experiment: Histopathology of Azan-stained aortic arch, image analysis of plaque area occupied by macrophages and collagen; settings: Azan stain, 16 weeks, Pitavastatin 0.5 mg/kg, compound 1 10 mg/kg; for percentage of plaque area occupied by collagen: control 26.5%; for percentage of plaque area occupied by macrophages: control 29.5%
Description: In addition to the evaluation of TC, an aorta excised from each WHHL rabbit was histopathologically examined After the completion of measurement, an aortic arch of each WHHL rabbit was immersion-fixed with 4% paraformaldehyde overnight, and was then embedded in paraffin in the usual manner to prepare a paraffin section. The paraffin section was stained with Azan stain. […] FIGS. 1A to 1D are microscope photographs of Azan-stained aortic arches of the WHHL rabbits, and FIGS. 2A and 2B are graphs which show the analysis results of the images shown in FIGS. 1A to 1D. In this regard, it is to be noted that FIG. 1A is a microscope photograph of a control group to which no drug was administered, FIG. 1B is a microscope photograph of a group to which Pitavastatin was administered in single, FIG. 1C is a microscope photograph of a group to which the compound 1 was administered in single, and FIG. 1D is a microscope photograph of a group to which Pitavastatin and the compound 1 were administered in combination.
as §1, §2
as §3, with “weeks. […]” for “weeks.”
as §4

SMILES	Ratio of aortic plaque area (%) Mean ± S.E [1] [%]	Inhibition ratio (%) of ratio of aortic plaque area [1] [%]	effect on TC (in words) ([2]; WHHL rabbits, 16 weeks via drinking water)	Total plasma cholesterol (mg/dL) Mean ± S.E [2] [mg/dL]	percentage of plaque area occupied by collagen [3] [%]	percentage of plaque area occupied by macrophages [3] [%]	Inhibition ratio (%) of total plasma cholesterol ([2]; vs control group, WHHL rabbits, 16 weeks via drinking water) [%]
CSc1cc(C)nc(SC)c1NC(=O)CN1CCN(CCSc2nc3ccccc3[nH]2)CC1 [Compound 1, 2-[4-[2-(benzimidazole-2-ylthio)ethyl]piperazin-1-yl]-N-[2,4-bis(methylthio)-6-methyl-3-pyridyl]acetamide]	43.7 ± 4.1	11.9	no effect on TC	648.3 ± 82.2	44.8	14.9	
O=C(O)C[C@H](O)C[C@H](O)/C=C/c1c(C2CC2)nc2ccccc2c1-c1ccc(F)cc1 [Pitavastatin]	47.1 ± 6.6	5.0		524.2 ± 35.6	34.7	17.1	19
